According to patent publication US20230107128A1, “SCREENING SYSTEM FOR HUMAN-TRANSFORMED CARTILAGE CELL LINE-BASED CARTILAGE DISEASE TREATMENT AGENTS” (LUGEN SCI CO., LTD., priority 2018, published 2023):
“Also recorded” adds a separate entry of the source. Where two headings read alike, the source gives them in different places.

Columns and labels:
[1] = test system: C28/I2 cell line; type: cell-based, human
Experimental: To confirm the effect of 2-AQCA on inhibiting a cell growth rate and the presence of toxicity, the cells to be analyzed (C28/I2 cell line and chondrocytes isolated from osteoarthritis patients) were seeded and fixed at an initial concentration of 10,000 cells per well in a 96-well plate 24 hours before the experiment, and the cells were subjected to starvation in serum-free culture fluid for seven hours on the following next day. After that, while the culture fluid was replaced with a serum culture fluid containing 10% FBS, the experimental groups were treated repeatedly three times with Kartogenin and 2-AQCA at each concentration and further cultured for 48 hours. The cells were treated with the test materials at each concentration of 0, 3.125, 6.25, 12.5, and 25 μM, which had been used to verify the effect of treatment at each of the concentrations. Similarly, in order to equalize the experimental conditions, the treatment was performed so that the final concentration of DMSO was 0.25% in all the experimental groups. […] Then, the absorbance of each cell was measured at 450 nm by using a TECAN SPARK multi-reader.

[2] = test system: Col10a1; experiment: Rq-PCR of Col10a1 expression in C28/I2 micromass culture; type: cell-based, human; conditions: 10 μM, 14 days micromass culture
Experimental: (§1) C28/I2 cell lines were subjected to micromass culture in order to compare and examine the change in the expression of Col2a1 and Sox9, which are the representative cartilage differentiation markers, and Col10, which is a cartilage hypertrophy marker, by treatment with the complex functional natural material 2-AQCA during long-term culture for inducing cartilage differentiation. For this purpose, the C28/I2 cells cultured for three days were collected and a cell fluid was prepared at a concentration of 2×10^7 cells/ml, and then 10 μl of cells were taken and injected into the center of a 24-well plate, and fixed in an incubator of 37° C., 5% CO2 for two to three hours until all the cells were attached to the bottom. When all the cells were fixed, 500 μl of serum culture fluid (DMEM/F12, 10% FBS, 1% penicillin, and streptomycin) was added and further cultured for seven hours or more. […]
(§2) After completing the micromass culture for 14 days, RNA was isolated from each cell pellet by using TRIzol™, and cDNA was synthesized from the isolated RNA. The synthesized cDNA was compared and analyzed for expression of the corresponding gene through a real-time quantitative polymerase chain reaction (Rq-PCR) by using a specific primer for each gene. […]

[3] = test system: Col2a1; experiment: Rq-PCR of Col2a1 expression in C28/I2 micromass culture; type: cell-based, human; conditions: 10 μM, 14 days micromass culture
Experimental: as §1, §2

[4] = test system: human type II collagen fusion promoter (Col2a1 promoter); experiment: Luciferase reporter screening system in C28/I2-EC2P-fLuc-CN5 cell line; type: cell-based; conditions: for cartilage regeneration activity (luminescence) compared with Kartogenin; criterion equal to or higher than Kartogenin: 50 μM, 48 hours, screen of 37 natural products
Experimental: All the experimental groups for the verification of the screening system according to the present invention and the search for novel cartilage regeneration materials were prepared by dissolving the same in dimethyl sulfoxide (DMSO) at the same concentration of 20 mM. The cells to be analyzed were seeded and fixed into a white-bottom 96-well plate, which was a plate exclusively used for luminescence analysis, at an initial concentration of 10,000 cells per well 24 hours before the experiment. On the following day, the cells were subjected to starvation in serum-free culture fluid (DMEM/F12 media) for seven hours. After that, while the culture fluid was replaced with the serum culture fluid [DMEM/F12, 10% FBS, 1% penicillin, and streptomycin], the experimental groups on natural products at each 20 mM were diluted 1/400, treated repeatedly three times, and further cultured for 48 hours.
After further culturing the cells to be analyzed, which were treated with natural materials in above 5.1, for 48 hours, all the culture fluid was removed and replaced with a new culture fluid containing D-luciferin at a final concentration of 150 μg/ml and reacted at room temperature for five minutes. Then, the degree of light emission from each cell was measured by using the luminescence analysis function of the TECAN SPARK multi-reader.
By using the screening system for cartilage disease treatment agents according to the present invention, the pattern of changes in cartilage regeneration activity according to the treatment concentration of 2-AQCA was compared with the activity of Kartogenin, a positive control group of natural material.

[5] = test system: Sox9; experiment: Rq-PCR of Sox9 expression in C28/I2 micromass culture; type: cell-based, human; conditions: 10 μM, 14 days micromass culture
Experimental: as §1, §2

[6] = C28/I2-EC2P-fLuc-CN5, drug 0 to 50 μM

O=C(O)c1ccc2c(c1)C(=O)c1ccccc1C2=O [2-AQCA, 2-anthraquinonecarboxylic acid]
cell growth rate higher than that of Kartogenin ([1]; C28/I2, 6.25 μM): about 11%
cell growth rate higher than that of Kartogenin ([1]; C28/I2, 12.5 μM): about 8.2%
decrease in Col10a1 expression compared to the negative control group [2]: about 40%
Col2a1 expression rate relative to the Kartogenin group [3]: about 4.2 times
Col2a1 expression rate relative to the negative control group [3]: 7.6 times
cartilage regeneration activity compared with Kartogenin ([4]; 25 μM): slightly higher than that of Kartogenin
cartilage regeneration activity (luminescence) compared with Kartogenin; criterion equal to or higher than Kartogenin [4]: complies with the above conditions
cartilage regeneration activity compared with Kartogenin ([4]; concentration of less than 25 μM): somewhat lower than that of Kartogenin
Sox9 expression relative to the negative control group [5]: at least 2.1 times

O=C(O)c1ccccc1C(=O)Nc1ccc(-c2ccccc2)cc1 [Kartogenin]
decrease in Col10a1 expression compared to the negative control group [2]: about 40%
luciferase activity at 50 μM ([4]; C28/I2-EC2P-fLuc-CN5, 50 μM): decreases the luciferase activity
luciferase activity with increasing concentration [4, 6]: increased as the concentration of both drugs is increased
cytotoxicity indirectly suggested by the luciferase activity ([4]; high concentration (50 μM)): has cytotoxicity at a high concentration
Sox9 expression relative to the negative control group [5]: insignificant increase

Cn1ncc2c1-c1c(Oc3ccc(OCc4ccc5ccccc5n4)cc3)sc(C(N)=O)c1CC2 [TD-198946]
cartilage regeneration activity (luminescence) compared with Kartogenin; criterion equal to or higher than Kartogenin [4]: higher than that of Kartogenin
luciferase activity compared with Kartogenin [4, 6]: higher than that of Kartogenin
luciferase activity with increasing concentration [4, 6]: increased as the concentration of both drugs is increased; also recorded: continuously increases the luciferase activity
